Reference: EP0908457B1, “3-(1,2-benzisothiazol- and isoxazol-5-Y1)-2,4(1H,3H)-pyrimidinedione or thione and 3-(1,2-benzisothiazol- and isoxazol-5-y1)-4(3H)-pyrimidinone or thione herbicidal agents” (BASF AKTIENGESELLSCHAFT, priority 1997, dated 1999)

Assays:
[1] = test system: Echinochloa oryzoides (Ard.) Fritsch.; test: Preemergence weed control under flooded paddy conditions, ECHORC (Watergrass (Calif.)); type: in vivo; conditions: preemergence, flooded paddy, rated three to four weeks after treatment; for herbicidal effect rating, ECHORC: meaning of each grade not given here
Cyperus iria = test: Preemergence weed control under flooded paddy conditions, CYPIR (Rice Flatsedge); type: in vivo; conditions: preemergence, flooded paddy, rated three to four weeks after treatment; for herbicidal effect rating, CYPIR: meaning of each grade not given here
[2] = test system: Cyperus serotinus, Rottb.; test: Preemergence weed control under flooded paddy conditions, CYPSE (Flatsedge); type: in vivo; conditions: preemergence, rated three to four weeks after treatment; for herbicidal effect rating, CYPSE: meaning of each grade not given here
[3] = test system: Monochoria vaginalis, Presl.; test: Preemergence weed control under flooded paddy conditions, MOOVA (Monochoria); type: in vivo; conditions: preemergence, flooded paddy, rated three to four weeks after treatment; for herbicidal effect rating, MOOVA: meaning of each grade not given here
Sagittaria pygmaea, L. = test: Preemergence weed control under flooded paddy conditions, SAGPY (Arrowhead (Pygmaea)); type: in vivo; conditions: preemergence, flooded paddy, rated three to four weeks after treatment; for herbicidal effect rating, SAGPY: meaning of each grade not given here
[4] = test system: Oryza sativa, (L.) Tebonnet; test: Rice tolerance to post-transplant applications under flooded paddy conditions (Example 187), ORYSAT (Rice, Tebonnet); conditions: rated three to four weeks after treatment

COC(=O)COc1ccc(C)cc1-c1nsc2ccc(-n3c(=O)cc(C)n(C)c3=O)cc12 [Example 38, Methyl {{2-[5-(3,6-dihydro-3,4-dimethyl-2,6-dioxo-1(2H)-pyrimidinyl)-1,2-benzisothiazol-3-yl]-p-tolyl}oxy}acetate]
herbicidal effect rating, ECHORC ([1]; 0.0313 kg/ha): 0.0 | herbicidal effect rating, ECHORC ([1]; 0.0625 kg/ha): 0.0 | herbicidal effect rating, ECHORC ([1]; 0.1250 kg/ha): 1.0 | herbicidal effect rating, ECHORC ([1]; 0.2500 kg/ha): 2.0 | herbicidal effect rating, CYPIR (Cyperus iria; 0.0313 kg/ha): 0.0 | herbicidal effect rating, CYPIR (Cyperus iria; 0.0625 kg/ha): 0.0 | herbicidal effect rating, CYPIR (Cyperus iria; 0.1250 kg/ha): 0.0 | herbicidal effect rating, CYPIR (Cyperus iria; 0.2500 kg/ha): 0.0 | herbicidal effect rating, CYPSE ([2]; 0.0313 kg/ha): 0.0 | herbicidal effect rating, CYPSE ([2]; 0.0625 kg/ha): 0.0 | herbicidal effect rating, CYPSE ([2]; 0.1250 kg/ha): 0.0 | herbicidal effect rating, CYPSE ([2]; 0.2500 kg/ha): 0.0 | herbicidal effect rating, MOOVA ([3]; 0.0313 kg/ha): 0.0 | herbicidal effect rating, MOOVA ([3]; 0.0625 kg/ha): 0.0 | herbicidal effect rating, MOOVA ([3]; 0.1250 kg/ha): 0.0 | herbicidal effect rating, MOOVA ([3]; 0.2500 kg/ha): 0.0 | herbicidal effect rating, SAGPY (Sagittaria pygmaea, L.; 0.0313 kg/ha): 0.0 | herbicidal effect rating, SAGPY (Sagittaria pygmaea, L.; 0.0625 kg/ha): 0.0 | herbicidal effect rating, SAGPY (Sagittaria pygmaea, L.; 0.1250 kg/ha): 0.0 | herbicidal effect rating, SAGPY (Sagittaria pygmaea, L.; 0.2500 kg/ha): 0.0 | herbicidal effect rating, ORYSAT (rice tolerance) ([4]; 0.0313 kg/ha): 0.0 | herbicidal effect rating, ORYSAT (rice tolerance) ([4]; 0.0625 kg/ha): 0.0 | herbicidal effect rating, ORYSAT (rice tolerance) ([4]; 0.1250 kg/ha): 0.0 | herbicidal effect rating, ORYSAT (rice tolerance) ([4]; 0.2500 kg/ha): 0.0

COC(=O)C(C)(C)c1nsc2ccc(-n3c(=O)cc(C(F)(F)F)n(C)c3=O)cc12 [Example 490, 1,2-Benzisothiazole-3-acetic acid, 5-[3,6-dihydro-3-methyl-2,6-dioxo-4-(trifluoromethyl)-1(2H)-pyrimidinyl]-alpha,alpha-dimethyl-, methyl ester]
ECHORC herbicidal rating ([1]; 0.0320 kg/ha): 8.0 | ECHORC herbicidal rating ([1]; 0.0620 kg/ha): 9.0 | ECHORC herbicidal rating ([1]; 0.1250 kg/ha): 9.0 | ECHORC herbicidal rating ([1]; 0.2500 kg/ha): 9.0 | CYPIR herbicidal rating (Cyperus iria; 0.0320 kg/ha): 9.0 | CYPIR herbicidal rating (Cyperus iria; 0.0620 kg/ha): 9.0 | CYPIR herbicidal rating (Cyperus iria; 0.1250 kg/ha): 9.0 | CYPIR herbicidal rating (Cyperus iria; 0.2500 kg/ha): 9.0 | CYPSE herbicidal rating ([2]; 0.0320 kg/ha): 9.0 | CYPSE herbicidal rating ([2]; 0.0620 kg/ha): 9.0 | CYPSE herbicidal rating ([2]; 0.1250 kg/ha): 9.0 | CYPSE herbicidal rating ([2]; 0.2500 kg/ha): 9.0 | MOOVA herbicidal rating ([3]; 0.0320 kg/ha): 9.0 | MOOVA herbicidal rating ([3]; 0.0620 kg/ha): 9.0 | MOOVA herbicidal rating ([3]; 0.1250 kg/ha): 9.0 | MOOVA herbicidal rating ([3]; 0.2500 kg/ha): 9.0 | SAGPY herbicidal rating (Sagittaria pygmaea, L.; 0.0320 kg/ha): 6.0 | SAGPY herbicidal rating (Sagittaria pygmaea, L.; 0.0620 kg/ha): 9.0 | SAGPY herbicidal rating (Sagittaria pygmaea, L.; 0.1250 kg/ha): 9.0 | SAGPY herbicidal rating (Sagittaria pygmaea, L.; 0.2500 kg/ha): 9.0 | ORYSAT herbicidal rating (rice tolerance) ([4]; 0.0320 kg/ha): 7.5 | ORYSAT herbicidal rating (rice tolerance) ([4]; 0.0620 kg/ha): 9.0 | ORYSAT herbicidal rating (rice tolerance) ([4]; 0.1250 kg/ha): 8.5 | ORYSAT herbicidal rating (rice tolerance) ([4]; 0.2500 kg/ha): 9.0

C=CS(=O)(=O)NC(=O)C(C)Oc1ccc(C)cc1-c1nsc2ccc(-n3c(=O)cc(C(F)(F)F)n(C)c3=O)cc12 (stereo not drawn) [Example 570, Propionamide, 2-{{2-{5-[3,6-dihydro-3-methyl-2,6-dioxo-4-(trifluoromethyl)-1(2H)-pyrimidinyl]-1,2-benzisothiazol-3-yl}-p-tolyl}oxy}-N-(vinylsulfonyl)-]
herbicidal effect rating, ECHORC ([1]; Rate 0.0320 kg/ha): 0.0 | herbicidal effect rating, ECHORC ([1]; Rate 0.0620 kg/ha): 2.0 | herbicidal effect rating, ECHORC ([1]; Rate 0.1250 kg/ha): 4.0 | herbicidal effect rating, ECHORC ([1]; Rate 0.2500 kg/ha): 6.0 | herbicidal effect rating, CYPIR (Cyperus iria; Rate 0.0320 kg/ha): 0.0 | herbicidal effect rating, CYPIR (Cyperus iria; Rate 0.0620 kg/ha): 0.0 | herbicidal effect rating, CYPIR (Cyperus iria; Rate 0.1250 kg/ha): 0.0 | herbicidal effect rating, CYPIR (Cyperus iria; Rate 0.2500 kg/ha): 9.0 | herbicidal effect rating, CYPSE ([2]; Rate 0.0320 kg/ha): 0.0 | herbicidal effect rating, CYPSE ([2]; Rate 0.0620 kg/ha): 0.0 | herbicidal effect rating, CYPSE ([2]; Rate 0.1250 kg/ha): 0.0 | herbicidal effect rating, CYPSE ([2]; Rate 0.2500 kg/ha): 0.0 | herbicidal effect rating, MOOVA ([3]; Rate 0.0320 kg/ha): 0.0 | herbicidal effect rating, MOOVA ([3]; Rate 0.0620 kg/ha): 0.0 | herbicidal effect rating, MOOVA ([3]; Rate 0.1250 kg/ha): 0.0 | herbicidal effect rating, MOOVA ([3]; Rate 0.2500 kg/ha): 9.0 | herbicidal effect rating, SAGPY (Sagittaria pygmaea, L.; Rate 0.0320 kg/ha): 0.0 | herbicidal effect rating, SAGPY (Sagittaria pygmaea, L.; Rate 0.0620 kg/ha): 0.0 | herbicidal effect rating, SAGPY (Sagittaria pygmaea, L.; Rate 0.1250 kg/ha): 0.0 | herbicidal effect rating, SAGPY (Sagittaria pygmaea, L.; Rate 0.2500 kg/ha): 0.0 | herbicidal effect rating ORYSAT ([4]; Rate 0.0320 kg/ha): 0.0 | herbicidal effect rating ORYSAT ([4]; Rate 0.0620 kg/ha): 1.0 | herbicidal effect rating ORYSAT ([4]; Rate 0.1250 kg/ha): 2.0 | herbicidal effect rating ORYSAT ([4]; Rate 0.2500 kg/ha): 3.0
